Results from US20200216416A1, “QUINOLINE COMPOUNDS AS INHIBITORS OF TAM AND MET KINASES” (Array BioPharma Inc., priority 2019, published 2020).
Read-outs that look alike come from different tables or passages of the source.

How the values were obtained:
[1] = target: T1, MET (wt) GST-tagged recombinant human MET kinase domain (Homo sapiens, UniProt P08581); experiment: c-Met Enzyme Assay, wild type (LanthaScreen Eu Kinase Binding); settings: averaged IC50; MET (wt) 10 nM; 60-minute incubation at 22° C.; read-out: SigChem WT IC50
T1 construct: GST-tagged recombinant human MET kinase domain; purchased Signal Chem
Procedure: (§1) The affinity of compound binding to wild type and mutant human MET kinases was measured using Invitrogen's LanthaScreen™ Eu Kinase Binding technology. Briefly, GST-tagged recombinant human MET kinase domain from Signal Chem (see Table 8 below for concentration in assay) was incubated with 50 nM Alexa-Fluor® Tracer 236 (Invitrogen Cat No. PR9078A) and 2 nM Europium-anti-GST (Invitrogen Cat. No. A15116) along with test compound in a buffer consisting of 25 mM HEPES, pH 7.4, 10 mM MgCl2, 0.01% Triton X-100, 1mM DTT, and 2% DMSO. Compounds were typically prepared in a three-fold serial dilution in DMSO and added to the assay to give the appropriate final concentration. After a 60-minute incubation at 22° C., the reaction was measured using a PerkinElmer EnVision multimode plate reader via TR-FRET dual wavelength detection, and the percent of control (POC) calculated using a ratiometric emission factor. […] The POC values were fit to a 4 parameter logistic curve and the IC50 value is point where the curve crosses 50 POC.

[2] = target: T2, human MET kinase F1200I (Homo sapiens, UniProt P08581, F1200I); experiment: c-Met Enzyme Assay, F1200I mutant; type: binding; settings: averaged IC50; F1200I 2 nM; 60-minute incubation at 22° C.
T2 construct: GST-tagged recombinant human MET kinase domain; purchased Signal Chem
Procedure: as §1

[3] = target: T3, human MET kinase L1195V (Homo sapiens, UniProt P08581, L1195V); experiment: c-Met Enzyme Assay, L1195V mutant; type: binding; settings: averaged IC50; L1195V 10 nM; 60-minute incubation at 22° C.
T3 construct: GST-tagged recombinant human MET kinase domain; purchased Signal Chem
Procedure: as §1

[4] = target: T4, human MET kinase Y1230C (Homo sapiens, UniProt P08581, Y1230C); experiment: c-Met Enzyme Assay, Y1230C mutant; type: binding; settings: averaged IC50; Y1230C 2 nM; 60-minute incubation at 22° C.; read-out: Y1230 C IC50
T4 construct: GST-tagged recombinant human MET kinase domain; purchased Signal Chem
Procedure: as §1

[5] = target: T5, human MET kinase Y1230H (Homo sapiens, UniProt P08581, Y1230H); experiment: c-Met Enzyme Assay, Y1230H mutant; type: binding; settings: averaged IC50; Y1230H 5 nM; 60-minute incubation at 22° C.; read-out: Y1230 H IC50
T5 construct: GST-tagged recombinant human MET kinase domain; purchased Signal Chem
Procedure: as §1

[6] = target: T6, human MET kinase Y1230S (Homo sapiens, UniProt P08581, Y1230S); experiment: c-Met Enzyme Assay, Y1230S mutant; type: binding; settings: averaged IC50; Y1230S 8 nM; 60-minute incubation at 22° C.; read-out: Y1230 S IC50
T6 construct: GST-tagged recombinant human MET kinase domain; purchased Signal Chem
Procedure: as §1

[7] = target: T7, MDR1 (P-gp) (Homo sapiens, UniProt P08183); experiment: MDR1 LLC-PK1 permeability assay; type: in vitro ADME; settings: pig, MDR1 transfected LLC-PK1 cells; for Papp at 2 h, 1 μM: permeability coefficient (Papp)
T7 construct: expressed in transfected cells; host or cells: LLC-PK1
Procedure: MDR1 transfected LLC-PK1 cells were cultured and plated according to manufacturer's recommendations with the exception that the passage media contained only 2% fetal bovine serum to extend passage time out to seven days.
Both positive and negative controls were used to assess functionality of P-gp efflux in the assay. Stock solutions for assay controls and the test article were prepared in DMSO for final test concentrations of 10 and 1 μM, respectively. Final organic concentration in the assay was 1%. All dosing solutions contained 10 μM lucifer yellow to monitor LLC-PK1 cell monolayer integrity.
For the apical to basolateral determination (A to B), 75 μL of the test article in transport buffer were added to the apical side of the individual transwells and 250 μL of basolateral media, without compound or lucifer yellow, were added to each well. For the basolateral to apical determination (B to A), 250 μL of test article in transport buffer were added to each well and 75 μL transport buffer, without compound or lucifer yellow, were added to each transwell. All tests were performed in triplicate, and each compound was tested for both apical to basolateral and basolateral to apical transport. The plates were incubated for 2 hours on a Lab-Line Instruments Titer Orbital Shaker (VWR, West Chester, Pa.) at 50 rpm and 37° C. with 5% CO2. All culture plates were removed from the incubator and 50 μL of media were removed from the apical and basolateral portion of each well and added to 150 μL of 1 μM labetalol in 2:1 acetonitrile (acetonitrile): H2O, v/v.
The plates were read using a Molecular Devices (Sunnyvale, Calif.) Gemini Fluorometer to evaluate the lucifer yellow concentrations at excitation/emission wavelengths of 425/535 nm. These values were accepted when found to be below 2% for apical to basolateral and 5% basolateral to apical flux across the MDR1-transfected LLC-PK1-transfected cell monolayers. The plates were sealed and the contents of each well analyzed by LC-MS/MS. The compound concentrations were determined from the ratio of the peak areas of the compound to the internal standard (labetalol) in comparison to the dosing solution.
The LC-MS/MS system was comprised of an HTS-PAL autosampler (Leap Technologies, Carrboro, N.C.), an HP1200 HPLC (Agilent, Palo Alto, Calif.), and a MDS Sciex 4000 Q Trap system (Applied Biosystems, Foster City, Calif.). […] The total run time, including re-equilibration, for a single injection was 1.2 minutes. Mass spectrometric detection of the analytes was accomplished using the ion spray positive mode. Analyte responses were measured by multiple reaction monitoring (MRM) of transitions unique to each compound (the protonated precursor ion and selected product ions for each test article and m/z 329 to m/z 162 for labetalol, the internal standard).
The permeability coefficient (Papp) is calculated from the following equation: […]
where Cd, V, t and C0 are the detected concentration (μM), the volume on the dosing side (mL), the incubation time (s) and the initial dosing concentration (μM), respectively. The calculations for Papp were made for each replicate and then averaged. In this assay, a compound is defined has having high permeability if the permeability is greater than 8×10^−6 cm/sec, a compound is defined has having medium permeability if the permeability is from 2×10^−6 cm/sec to 8×10^−6 cm/sec, and a compound is defined has having low permeability if the permeability is less than 2×10^−6 cm/sec.
An efflux ratio was calculated from the mean apical to basolateral (A-B) Papp data and basolateral to apical (B-A) Papp data:
Efflux ratio=Papp(B−A)/Papp(A−B)

[8] = LLC-PK1, Papp(B−A)/Papp(A−B), test article 1 μM, 2 hours, 37° C., read-out: Efflux ratio
[9] = LLC-PK1, efflux ratio = Papp(B-A)/Papp(A-B), read-out: MDR1 Pe Ratio

T6 sequence (P08581 1078-1345 Y1230S): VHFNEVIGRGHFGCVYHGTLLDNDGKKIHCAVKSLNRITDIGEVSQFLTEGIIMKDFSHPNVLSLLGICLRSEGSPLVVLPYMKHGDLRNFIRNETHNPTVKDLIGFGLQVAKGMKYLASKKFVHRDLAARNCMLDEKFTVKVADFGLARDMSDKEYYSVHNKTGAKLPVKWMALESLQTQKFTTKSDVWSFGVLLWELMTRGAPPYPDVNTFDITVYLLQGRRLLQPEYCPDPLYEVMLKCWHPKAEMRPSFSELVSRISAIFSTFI
T1 sequence (P08581 1078-1345 limits assumed): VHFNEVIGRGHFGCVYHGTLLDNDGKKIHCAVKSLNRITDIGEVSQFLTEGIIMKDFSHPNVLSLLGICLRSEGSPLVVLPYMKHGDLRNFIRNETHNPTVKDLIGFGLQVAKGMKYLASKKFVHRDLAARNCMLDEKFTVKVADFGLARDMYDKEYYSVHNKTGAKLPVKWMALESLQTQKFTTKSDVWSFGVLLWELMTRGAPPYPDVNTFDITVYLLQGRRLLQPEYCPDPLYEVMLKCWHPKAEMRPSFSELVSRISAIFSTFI
T2 sequence (P08581 1078-1345 F1200I limits assumed): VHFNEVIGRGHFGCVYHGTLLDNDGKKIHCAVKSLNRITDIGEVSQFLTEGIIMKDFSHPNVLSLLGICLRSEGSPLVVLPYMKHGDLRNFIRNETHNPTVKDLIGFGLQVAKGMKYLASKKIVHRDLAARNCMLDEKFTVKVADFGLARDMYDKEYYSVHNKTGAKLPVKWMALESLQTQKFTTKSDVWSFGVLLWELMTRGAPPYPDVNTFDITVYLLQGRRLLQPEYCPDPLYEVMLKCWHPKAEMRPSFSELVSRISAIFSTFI
T3 sequence (P08581 1078-1345 L1195V limits assumed): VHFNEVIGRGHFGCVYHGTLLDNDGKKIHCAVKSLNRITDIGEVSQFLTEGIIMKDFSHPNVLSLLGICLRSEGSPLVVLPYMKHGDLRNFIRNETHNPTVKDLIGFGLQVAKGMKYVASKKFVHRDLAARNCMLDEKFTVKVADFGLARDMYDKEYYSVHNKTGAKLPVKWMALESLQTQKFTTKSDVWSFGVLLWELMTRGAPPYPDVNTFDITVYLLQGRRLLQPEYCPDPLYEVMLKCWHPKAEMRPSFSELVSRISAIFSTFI
T4 sequence (P08581 1078-1345 Y1230C): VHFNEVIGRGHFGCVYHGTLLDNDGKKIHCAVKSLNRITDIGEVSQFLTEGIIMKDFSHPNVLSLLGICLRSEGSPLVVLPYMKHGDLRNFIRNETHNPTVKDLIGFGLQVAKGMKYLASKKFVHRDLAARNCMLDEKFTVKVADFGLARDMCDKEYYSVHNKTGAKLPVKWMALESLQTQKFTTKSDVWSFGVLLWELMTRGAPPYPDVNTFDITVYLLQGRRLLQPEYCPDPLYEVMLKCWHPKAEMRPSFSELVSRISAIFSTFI
T7 sequence (P08183 whole entry): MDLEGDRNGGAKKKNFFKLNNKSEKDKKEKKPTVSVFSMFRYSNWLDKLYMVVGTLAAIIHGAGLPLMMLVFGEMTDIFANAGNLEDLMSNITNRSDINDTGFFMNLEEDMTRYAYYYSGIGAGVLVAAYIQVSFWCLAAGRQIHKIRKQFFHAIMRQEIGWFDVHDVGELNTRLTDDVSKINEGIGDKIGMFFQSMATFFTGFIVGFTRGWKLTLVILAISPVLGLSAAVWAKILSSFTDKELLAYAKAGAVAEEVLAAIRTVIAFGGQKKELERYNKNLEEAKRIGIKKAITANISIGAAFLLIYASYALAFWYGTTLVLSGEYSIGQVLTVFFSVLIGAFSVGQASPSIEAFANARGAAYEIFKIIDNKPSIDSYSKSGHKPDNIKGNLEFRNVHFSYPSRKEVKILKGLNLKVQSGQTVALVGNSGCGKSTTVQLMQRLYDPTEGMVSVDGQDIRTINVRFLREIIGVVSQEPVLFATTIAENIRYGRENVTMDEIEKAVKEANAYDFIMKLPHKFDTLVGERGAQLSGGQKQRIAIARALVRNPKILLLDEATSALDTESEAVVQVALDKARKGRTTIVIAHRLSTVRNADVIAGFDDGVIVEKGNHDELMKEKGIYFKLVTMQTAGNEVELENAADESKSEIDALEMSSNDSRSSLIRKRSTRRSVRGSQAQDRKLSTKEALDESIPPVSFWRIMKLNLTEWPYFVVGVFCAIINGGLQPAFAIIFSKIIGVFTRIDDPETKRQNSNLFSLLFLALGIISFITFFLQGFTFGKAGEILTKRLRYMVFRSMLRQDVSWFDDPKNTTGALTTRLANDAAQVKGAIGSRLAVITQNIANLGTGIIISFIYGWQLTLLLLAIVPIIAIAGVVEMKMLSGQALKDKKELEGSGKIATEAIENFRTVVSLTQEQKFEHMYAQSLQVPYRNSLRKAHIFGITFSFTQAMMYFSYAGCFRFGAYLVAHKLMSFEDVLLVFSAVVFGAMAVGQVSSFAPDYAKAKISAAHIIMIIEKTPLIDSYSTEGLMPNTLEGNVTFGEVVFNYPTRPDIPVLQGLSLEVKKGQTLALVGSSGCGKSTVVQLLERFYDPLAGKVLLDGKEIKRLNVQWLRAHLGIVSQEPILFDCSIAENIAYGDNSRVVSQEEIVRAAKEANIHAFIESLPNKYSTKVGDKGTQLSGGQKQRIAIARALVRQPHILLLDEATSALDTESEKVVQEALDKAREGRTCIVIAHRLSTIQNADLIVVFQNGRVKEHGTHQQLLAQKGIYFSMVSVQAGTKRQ
T5 sequence (P08581 1078-1345 Y1230H): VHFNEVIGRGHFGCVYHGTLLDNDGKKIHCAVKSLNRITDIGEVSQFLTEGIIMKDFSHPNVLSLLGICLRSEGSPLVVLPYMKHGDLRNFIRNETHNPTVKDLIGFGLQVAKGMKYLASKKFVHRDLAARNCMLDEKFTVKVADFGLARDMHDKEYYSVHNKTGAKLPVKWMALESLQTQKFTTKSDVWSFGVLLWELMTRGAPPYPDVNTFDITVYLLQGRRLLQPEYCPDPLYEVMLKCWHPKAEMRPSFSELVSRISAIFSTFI

COc1cc2c(Oc3ccc(NC(=O)c4cn(C(C)C)cc(-c5ccc(F)cc5)c4=O)nc3)ccnc2cc1F [Example 49, N-(5-((7-fluoro-6-methoxyquinolin-4yl)oxy)pyridin-2-yl)-5-(4-fluorophenyl)-1-isopropyl-4-oxo-1,4-dihydropyridine-3-carboxamide]
IC50 [1]: 27 nM
IC50 [2]: 27.8 nM
IC50 [3]: 459 nM
IC50 [4]: 39 nM
IC50 [5]: 112 nM
IC50 [6]: 67.1 nM
efflux ratio at 2 h, 1 μM [7, 8]: 3.5
efflux ratio at 2 h, 1 μM [7, 9]: 0.99
Papp at 2 h, 1 μM [7]: 4 ×10⁻⁶ cm/s

COc1ccc2nccc(Oc3ccc(NC(=O)c4cn(C(C)C)c(C)c(-c5ccc(F)cc5)c4=O)nc3)c2c1 [Example 33, 5-(4-fluorophenyl)-1-isopropyl-N-(5-((6-methoxyquinolin-4-yl)oxy)pyridin-2-yl)-6-methyl-4-oxo-1,4-dihydropyridine-3-carboxamide]
IC50 [1]: 3.9 nM
IC50 [2]: 4.6 nM
IC50 [3]: 20.2 nM
IC50 [4]: 2.7 nM
IC50 [5]: 11.2 nM
IC50 [6]: 5 nM
efflux ratio at 2 h, 1 μM [7, 8]: 3.5
efflux ratio at 2 h, 1 μM [7, 9]: 2
Papp at 2 h, 1 μM [7]: 10 ×10⁻⁶ cm/s

COc1cc2nccc(Oc3ccc(NC(=O)c4cn(C(C)C)cc(-c5ccc(F)cc5F)c4=O)nc3)c2cc1OC [Example 4]
IC50 [1]: 2.1 nM
IC50 [2]: 3 nM
IC50 [3]: 21.9 nM
IC50 [4]: 2.8 nM
IC50 [5]: 4.9 nM
IC50 [6]: 2.2 nM
efflux ratio at 2 h, 1 μM [7, 8]: 3.5
efflux ratio at 2 h, 1 μM [7, 9]: 1.5
Papp at 2 h, 1 μM [7]: 10 ×10⁻⁶ cm/s

COc1cc(-c2cn(C(C)C)cc(C(=O)Nc3ccc(Oc4ccnc5cc(OC)c(OC)cc45)cn3)c2=O)ccc1F [Example 20, N-(5-((6,7-dimethoxyquinolin-4yl)oxy)pyridin-2-yl)-5-(4-fluoro-3-methoxyphenyl)-1-isopropyl-4-oxo-1,4-dihydropyridine-3-carboxamide]
IC50 [1]: 5.2 nM
IC50 [2]: 5.1 nM
IC50 [3]: 58.1 nM
IC50 [4]: 7.7 nM
IC50 [5]: 9.9 nM
IC50 [6]: 6.2 nM
efflux ratio at 2 h, 1 μM [7, 9]: 3.6
Papp at 2 h, 1 μM [7]: 9 ×10⁻⁶ cm/s

COc1cc2nccc(Oc3ccc(NC(=O)c4cn(CC5CCOCC5)cc(-c5ccc(F)cc5)c4=O)nc3)c2cc1OC [Example 8, N-(5-((6,7-dimethoxyquinolin-4-yl)oxy)pyridin-2-yl)-5-(4-fluorophenyl)-4-oxo-1-((tetrahydro-2H-pyran-4-yl)methyl)-1,4-dihydropyridine-3-carboxamide]
IC50 [1]: 4.1 nM
IC50 [2]: 4.9 nM
IC50 [3]: 29.1 nM
IC50 [4]: 7.4 nM
IC50 [5]: 8.6 nM
IC50 [6]: 4.3 nM
efflux ratio at 2 h, 1 μM [7, 9]: 10
Papp at 2 h, 1 μM [7]: 9 ×10⁻⁶ cm/s

COc1ccc2nccc(Oc3ccc(NC(=O)c4cn(C)cc(-c5ccc(F)cc5)c4=O)nc3)c2c1 [Example 41, 5-(4-fluorophenyl)-N-(5-((6-methoxyquinolin-4yl)oxy)pyridin-2-yl)-1-methyl-4-oxo-1,4-dihydropyridine-3-carboxamide]
IC50 [1]: 117 nM
IC50 [2]: 105 nM
IC50 [3]: 2220 nM
IC50 [4]: 173 nM
IC50 [5]: 328 nM
IC50 [6]: 226 nM
efflux ratio at 2 h, 1 μM [7, 8]: 3.5
efflux ratio at 2 h, 1 μM [7, 9]: 2.5
Papp at 2 h, 1 μM [7]: 7 ×10⁻⁶ cm/s

COc1cc2nccc(Oc3ccc(NC(=O)c4cn(C(C)C)cc(-c5ccc(F)cc5C)c4=O)nc3)c2cc1OC [Example 19, N-(5-((6,7-dimethoxyquinolin-4yl)oxy)pyridin-2-yl)-5-(4-fluoro-2-methylphenyl)-1-isopropyl-4-oxo-1,4-dihydropyridine-3-carboxamide]
IC50 [1]: 1.8 nM
IC50 [2]: 2.8 nM
IC50 [3]: 10 nM
IC50 [4]: 2 nM
IC50 [5]: 2.7 nM
IC50 [6]: 1.8 nM
efflux ratio at 2 h, 1 μM [7, 8]: 3.5
efflux ratio at 2 h, 1 μM [7, 9]: 2.8
Papp at 2 h, 1 μM [7]: 11 ×10⁻⁶ cm/s

COc1cc2nccc(Oc3ccc(NC(=O)c4cn(CCN(C)C)cc(-c5ccc(Cl)cc5)c4=O)nc3)c2cc1OC [Example 42]
IC50 [1]: 3.2 nM
IC50 [2]: 3.4 nM
IC50 [3]: 8.2 nM
IC50 [4]: 2.4 nM
IC50 [5]: 6.7 nM
IC50 [6]: 2.7 nM
efflux ratio at 2 h, 1 μM [7, 9]: 12

COc1cc2c(Oc3ccc(NC(=O)c4cn(C(C)C)c(C)c(-c5ccc(F)cc5)c4=O)nc3)ccnc2cc1F [Example 48, N-(5-((7-fluoro-6-methoxyquinolin-4yl)oxy)pyridin-2-yl)-5-(4-fluorophenyl)-1-isopropyl-6-methyl-4-oxo-1,4-dihydropyridine-3-carboxamide]
IC50 [1]: 6.8 nM
IC50 [2]: 5.4 nM
IC50 [3]: 31.7 nM
IC50 [4]: 9.4 nM
IC50 [5]: 15.8 nM
IC50 [6]: 8.8 nM
efflux ratio at 2 h, 1 μM [7, 8]: 3.5
efflux ratio at 2 h, 1 μM [7, 9]: 1.6
Papp at 2 h, 1 μM [7]: 15 ×10⁻⁶ cm/s
